Results taken from patent US9943525B2, “Composition for reducing cell senescence comprising Rho-kinase inhibitor and use thereof” (Samsung Electronics Co., Ltd., priority 2014, dated 2018).

Tests used:
Format in all cases: cell-based, human
[1] = system: senescent fibroblasts (after 37 cell passages); test: cell proliferation and colony formation, crystal violet stain; details: 4 weeks; for cell proliferation and cell colony formation: vs DMSO
Experimental: (§1) Fibroblast cell lines were cultured in Dulbecco's Modified Eagle's Media (DMEM) supplemented with 10% fetal bovine serum (FBS) and 100 unit/ml of penicillin, and 100 μg/ml of streptomycin (two antibiotics are purchased from Gibro-BRL and Grand Island, N.Y.) in a 5% CO2 incubator at 37° C. The fibroblast cell lines (M11 strain) were obtained from a foreskin of a child. Subculture was initiated when the cells were approximately 85% confluent in plates. Early subcultures were performed at a split ratio of 1:4, and later subcultures were performed at a split ratio of 1:2. When cell doubling time was 14 days, the cells were regarded as senescent fibroblasts (passages 35 to 37).
In order to determine optimum concentrations of Rho-kinase inhibitors Y-27632 (Selleckchem, S1049, 50 mg 2HCl salt form), FASUDIL (Selleckchem, S1573, 500 mg HCl salt form), and SR3677 (Synkinase, SYN1083, 10 mg), the senescent fibroblasts (after 37 cell passages) were seeded on each well of a 6-well plate in a concentration of 2,000 cells/well, and the wells were treated with 1 μM, 5 μM, 10 μM, 20 μM, and 30 μM of Y-27632, 1 μM, 5 μM, 10 μM, 20 μM, and 30 μM of FASUDIL, and 0.01 μM, 0.05 μM, 0.1 μM, 0.5 μM, and 1 μM of SR3677. In addition, a negative control group was prepared in the same manner, except that dimethyl sulfoxide (DMSO) was used. The culture media supplemented with the Rho-kinase inhibitors were changed at every 4 days, and colonies were stained with a 0.05% crystal violet stain after 4 weeks.

[2] = system: senescent progeric fibroblasts (cell passage 17); test: microscopic observation of cell number and shape; details: 4 weeks, FIG. 17; for numbers of cells: vs DMSO
Experimental: as §1, with “Progeric fibroblasts (Hutchinson-Gilford Progeria Syndrome Skin Fibroblasts, Coriell Cell Repositories, AG03198 B)” for “Fibroblast cell lines”, “serpm” for “serum”, “Subculturing” for “The fibroblast cell lines (M11 strain) were obtained from a foreskin of a child. Subculture”, “senescent progeric” for “senescent”, “(cell passages 16” for “(passages 35”, “17).” for “37).”
The senescent progeric fibroblasts (cell passage 17) were seeded on each well of a 6-well plate in a concentration of 2,000 cells/well and cultured in the presence of 5 μM of Y-27632, 5 μM of FASUDIL, and 0.5 μM of SR3677 for 4 weeks in a 5% CO2 incubator at 37° C. The culture media were changed at every 4 days with new culture media supplemented with 5 μM of Y-27632, 5 μM of FASUDIL, and 0.5 μM of SR3677. A negative control group was prepared in the same manner, except that 0.05 (v/v) % of DMSO was used.
FIG. 17 illustrates microscopic images of cells cultured in the presence of 5 μM of Y-27632, 5 μM of FASUDIL, and 0.5 μM of SR3677. In “a” of FIG. 17, a portion was selected, marked by a rectangle with a dashed line, and enlarged in a1 for closer examination of the cultured cells. In a1 of FIG. 17, a portion of a1 was selected, marked by a rectangle with a dashed line, and enlarged in a2 for much closer examination of the cultured cells (Scale bar 20 um).

[3] = system: senescent progeric fibroblasts (cell passage 17); test: DNA comet assay; details: 4 weeks, vs DMSO, p<0.05, FIG. 21
Experimental: The degrees of restoration of DNA damage in senescent progeric fibroblasts by the Rho-kinase inhibitors were identified by a DNA comet assay. This method is performed by detecting DNA fractions cleaved by ultraviolet (UV) irradiation. This method is based on gel electrophoresis. During gel electrophoresis, damaged DNA migrates farther than normal DNA forming a tail like a comet-tail. Then, a slide was stained with SYBR Green, and the length of a tail of a DNA fraction was measured using a fluorescence microscope to identify the degree of DNA damage.
FIG. 21 is a graph displaying degrees of DNA damage in progeric fibroblasts (cell passage 17) cultured in the presence of Rho-kinase inhibitors Y-27632 (5 μM), Fasudil (5 μM), and SR3677 (0.5 μM) measured by a DNA comet assay indicating the degree of DNA damage. In FIG. 21, senescent progeric cells (cell passage 17) were cultured in culture media supplemented with 5 μM of Y-27632, 5 μM of FASUDIL, and 0.5 μM of SR3677 for 4 weeks in a 5% CO2 incubator at 37° C. The culture media were changed at every 4 days with new culture media supplemented with 5 μM of Y-27632, 5 μM of FASUDIL, and 0.5 μM of SR3677. Cells having a cell doubling time of 6 to 7 days were used as young cells. A negative control group was prepared in the same manner, except that DMSO was used. […] Thus, it was confirmed that the degree of DNA damage increases in senescent cells. […] In FIG. 21, * indicates statistically significant (p<0.05).

Row | Compound | cell proliferation and cell colony formation ([1]; 5 μM, FIG. 1 B) | toxic effects on cell proliferation and cell colony formation ([1]; 10 μM, 20 μM, and 30 μM, FIG. 1 B) | cell shape ([2]; 5 μM) | numbers of cells ([2]; 5 μM) | DNA damage (Tail Moment) ([3]; 5 μM) | cell proliferation and cell colony formation ([1]; 0.5 μM, FIG. 1 C) | toxic effects on cell proliferation and cell colony formation ([1]; 1 μM, FIG. 1 C) | cell shape ([2]; 0.5 μM) | numbers of cells ([2]; 0.5 μM) | DNA damage (Tail Moment) ([3]; 0.5 μM) | cell proliferation and cell colony formation ([1]; 5 μM, 10 μM, and 20 μM, FIG. 1 A) | toxic effects on cell proliferation and cell colony formation ([1]; 30 μM, FIG. 1 A)
1 | O=S(=O)(c1cccc2cnccc12)N1CCCNCC1 [FASUDIL, 5-(1,4-diazepane-1-sulfonyl)isoquinoline] | greatest therapeutic effects | reduces cell proliferation and cell colony formation due to toxic effects | spindle shape generally found in young cells | greater than that of the control group | considerably reduced | – | – | – | – | – | – | –
2 | CN(C)CCOc1cc(-c2cn[nH]c2)ccc1NC(=O)C1COc2ccccc2O1 (stereo not drawn) [SR3677] | – | – | – | – | – | greatest therapeutic effects | reduces cell proliferation and cell colony formation due to toxic effects | spindle shape generally found in young cells | greater than that of the control group | considerably reduced | – | –
3 | C[C@@H](N)[C@H]1CC[C@H](C(=O)Nc2ccncc2)CC1 [Y-27632, (1R,4R)-4-((R)-1-aminoethyl)-N-(pyridin-4-yl)cyclohexanecarboxamide] | – | – | spindle shape generally found in young cells | greater than that of the control group | considerably reduced | – | – | – | – | – | greatest therapeutic effects | reduces cell proliferation and cell colony formation due to toxic effects
